What all share (format): cell-based
One assay has as its system Fungi. Description: Germ content determination (Ph. Eur. 6.8, Chapter 2.6.12) of aqueous walnut shell meal slurry: fungi. As to the method:
(§1) Test Equipment: • A BF 720 incubator is used. • A spiral plater is used as a plating device, with which a predefined volume of the suspension to be checked for germs is applied to the culture medium. For example, an Eddy-Jet 2W spiral plater is used.
(§2) The germ count takes place in the screening by the Envirocheck® system for confirmation according to the Ph Eur.6.8. Chapter 2.6.12.
(§3) Subculturing: • The subculturing is carried out by a spiral plater using a corresponding program, depending on the requirements (for example, in one program, higher germ quantities may be more easily broken down by the gradient of the applied product or, in another program, a greater amount may be applied, which drops the lower determination limit). • One (in the case of double samples, two) fungus culture medium and one bacteria culture medium each are taken for each sample. • Standard total germ count checks are performed with no double determination.
(§4) Neutralization: • A neutralization, if it is to be carried out, takes place using 50% NaOH.
(§5) Incubation: • Bacteria: 2-3 days at 30+/−2° C. in the corresponding incubators; • Yeast/fungus: 3-5 days at room temperature away from light.
(§6) . This amount was maintained at pH 2.9 in the subsequent tests. Following a predefined time span T in minutes, one sample each was collected and incubated for 48 hours in an incubator in order to subsequently determine its germ load. The time span T thus corresponds to the contact time of the disinfectant, in the present case only citric acid.
(§7) The germ count after incubation takes place using the Environcheck® test sticks immediately or in an outside laboratory. For the external check, the product is cooled and stored for at least 1 day at 8° C. and transferred in a polystyrene box.
(§8) The germ content determination is based on the Ph. Eur.6.8—germ content, Chapter 2.6.12
(§9) […]. The sample was then again adjusted to pH 7 using sodium hydroxide solution and incubated in the incubator for 48 hours. The germs in the individual samples were subsequently counted again using the Envirocheck® system internally or using an outside institute by a previously cooled stored product for 1 day.
(§10) . The germ count determination is based on the Ph. Eur. 6.8—Germ content, Chapter 2.6.12

The subject of assay [1] is Bacteria (aerobic spore-formers). Briefly: Germ content determination (Ph. Eur. 6.8, Chapter 2.6.12) of aqueous walnut shell meal slurry: bacteria. As for the experimental part:
as §1, §2, §3, §4, §5, §6, §7, §8, §9, §10

The subject of a further assay is Yeasts. Description: Germ content determination (Ph. Eur. 6.8, Chapter 2.6.12) of aqueous walnut shell meal slurry: yeasts. As for the experimental part:
as §1, §2, §3, §4, §5, §6, §7, §8, §9, §10

For assay [2], the system named is total germ count of walnut shell meal slurry. Briefly: Germ content determination (Ph. Eur. 6.8, Chapter 2.6.12) of aqueous walnut shell meal slurry: total germ count. As to the method:
as §1, §2, §4, §5
Following a predefined time span T in minutes, one sample each was collected and incubated for 48 hours in an incubator in order to subsequently determine its germ load.
as §7, §8
The subsequent incubation of the sample took place over 48 hours.
The sample was then again adjusted to pH 7 using sodium hydroxide solution and incubated in the incubator for 48 hours. The germs in the individual samples were subsequently counted again using the Envirocheck® system internally or using an outside institute by a previously cooled stored product for 1 day.
The germ count determination is based on the Ph. Eur. 6.8—Germ content, Chapter 2.6.12

Setting [3] is: pH 2.9, contact time 15 minutes.
Setting [4] is: pH 2.9, contact time 30 minutes.
Where [5] appears, read: pH 2.9, contact time 45 minutes.
Where [6] appears, read: pH 2.9, contact time 60 minutes.

The text below walks through data of patent publication US20240041037A1, “DISINFECTANT AND USE THEREOF” (priority 2021, published 2024).

Take `O=C(O)CC(O)(CC(=O)O)C(=O)O` [citric acid]: the Fungi is listed as 50 CFU/g or mL in the assay with Fungi (setting [3]), 55 CFU/g or mL in the assay on Fungi (setting [4]), 35 CFU/g or mL in the assay on Fungi (setting [5]) and 20 CFU/g or mL with Fungi (setting [6]). The Bacteria is reported as 60 CFU/g or mL in assay [1] (setting [3]), 100 CFU/g or mL in assay [1] (setting [4]), 200 CFU/g or mL in assay [1] (setting [5]) and 170 CFU/g or mL in assay [1] (setting [6]). Also, the Yeasts is reported as 140 CFU/g or mL with Yeasts (setting [3]), 140 CFU/g or mL in the assay on Yeasts (setting [4]), “— (<7 CFU/g or mL)” in the assay with Yeasts (setting [5]) and 35 CFU/g or mL with Yeasts (setting [6]). Moreover, the “TGC (total germ count)” value was 250 CFU/g or mL in assay [2] (setting [3]), 295 CFU/g or mL in assay [2] (setting [4]) and 235 CFU/g or mL in assay [2] (setting [5]).

In the case of `CC(O)C(=O)O` (stereo not shown) [lactic acid], the “contact time after which germ load reduction clearly identifiable” value in assay [2] (pH 2.9) is 5 min.
